Reference: patent US5705333A, “Peptide-based nucleic acid mimics(PENAMS)” (The Regents of The University of California, priority 1994, dated 1998)

Test system: dT10
Assay: Thermal denaturation (UV absorbance melting curve, Tm) of hybrids with complementary oligonucleotide dT10
Assay type: binding
Settings: for Tm (°C.) Me2 AsO2 Na: 10 mM sodium cacodylate buffer; for Tm (°C.) Nax PO4: phosphate buffer
From the text: Thermal denaturation of an ordered, native structure of a nucleic acid disrupts the base-pair stacking and, as a result, the UV absorbance increases. The change in UV absorbance, known as […], is a measure of base-pairing and base-stacking between the two complementary strands. The UV absorbance profile as a function of temperature is called a melting curve and the midpoint of this curve is defined as the melting temperature, Tm, at which 50% of the double strand is dissociated into its two single strands. Thus, the measurement of UV absorbance melting curves provides qualitative and quantitative structural information about the nucleic acid bound to its complementary ligand. Tm also depends on the concentration of the oligonucleotide and the properties of the solvent (buffer: pH, ionic strength, etc.).
Binding studies were carried out by hybridizing the isolated PENAM described above to its complementary oligonucleotide "dT10 " followed by thermal denaturation and measurement of UV absorbance as a function of temperature. The synthetic oligodeoxynucleotide (ODN) dT10 and its complementary oligodeoxynucleotide dA10 were used as the reference nucleic acids. The samples prepared in phosphate buffer (Nax PO4) can precipitate magnesium phosphate at high temperature during the thermal denaturation cycle. This problem was readily avoided by repeating the experiment in 10 mM sodium cacodylate buffer (Me2 AsO2 Na) instead of the phosphate buffer.

[1] = dT10 + 2KpA10 Km, stoichiometry 1:0:2
[2] = dT10 + KpA10 Km, stoichiometry 1:0:1
[3] = dT10 + dA10 + 2KpA10 Km, stoichiometry 1:1:2
[4] = dT10 + dA10 + KpA10 Km, stoichiometry 1:1:1
[5] = thermal denaturation, summary of Table 1

## H-Lys-{(D/L)-(AdhAla)10 }-Lys-NH2 [KpA10 Km]
2dT10 + KpA10 Km, stoichiometry 2:0:1
  Tm (°C.) Me2 AsO2 Na: 32.28 °C
[1]
  Tm (°C.) Me2 AsO2 Na: 32.57 °C
  Tm (°C.) Nax PO4: 30.8 °C
[2]
  Tm (°C.) Me2 AsO2 Na: 31.00 °C
  Tm (°C.) Nax PO4: 31.26 °C
[3]
  Tm (°C.) Me2 AsO2 Na: 32.26 °C
  Tm (°C.) Nax PO4: 30.07 °C
[4]
  Tm (°C.) Me2 AsO2 Na: 31.052 °C
  Tm (°C.) Nax PO4: 31.41 °C
[5]
  Binding to complementary nucleic acid strand: binds to its complementary nucleic acid strand
  Melting temperature compared with reference ODN dT10:dA10: melt at an even higher temperature than the reference ODN
